Test results as given in PMC9800617, “Pharmacokinetics/pharmacodynamics of polymyxin B in patients with bloodstream infection caused by carbapenem-resistant Klebsiella pneumoniae” (Frontiers in Pharmacology, 2022).
Where two headings read alike, the source gives them in different places. Bridge positions count the residues as written; N and C are the ends. Square brackets hold non-standard residues; d marks the D form. Peptide text beside a SMILES is read from it. * marks the point of attachment. X1 = CC[C@H](C)CCCCC(=O)*; Dab = NCC[C@H](N)C(=O)O

Columns and labels:
[1] = Plasma pharmacokinetics of polymyxin B in CRKP BSI patients (LC-MS/MS; non-compartmental and compartmental); type: in vivo, human; conditions: mean ± SD
Protocol: Polymyxin B Sulphate for Injection (Lot No. A-1411137) containing 72.0% polymyxin B1 and B1-Ile and 12.1% polymyxin B2 was provided by SPH No. 1 Biochemical & Pharmaceutical Co., Ltd. (Shanghai, China). Prior to administration, polymyxin B was dissolved in 50–100 ml normal saline as per the manufacturer’s instructions then administered intravenously at a dose of 1.25 mg/kg every 12 h (2-h infusion) with an initial loading dose of 2.5 mg/kg (3-h infusion). Treatment lasted for 7–14 days as per treatment guidelines ([Rhodes et al., 2017]). Adverse events were closely monitored and recorded for each patient.
Blood samples (4 mL) for pharmacokinetic analysis were collected in tubes with EDTA-K2 as the anticoagulant immediately before and after administration of the polymyxin B loading dose (the first dose) and immediately before administration of the second dose. Subsequent blood samples were collected during the second visit (5th, 6th or 7th dosing) consisting of a sample immediately prior to the infusion and at .5, 1, 2, 3, 4, 5, 6, 7, 8, 10, and 12 h following the commencement of the infusion. If possible, a final blood sample was collected 24 h after the commencement of the last infusion. All blood samples were centrifuged (4°C, 2,000 g) and plasma collected and stored at −80°C until analysis.
The concentrations of polymyxin B1 (including B1-Ile) and polymyxin B2 were determined using a validated liquid chromatography-tandem mass spectrometry (LC-MS/MS) method ([Liu et al., 2020]). […] The calibration range was .050–5.00 mg/L for polymyxin B1 and .011–.549 mg/L for polymyxin B2. The concentration of polymyxin B was calculated by the sum of concentrations of polymyxin B1 and B2 using molar terms and their molecular weights (polymyxin B1 is 1203.48 g/mol, polymyxin B2 is 1189.45 g/mol).
The PK parameters of polymyxin B were calculated using Phoenix WinNonlin 8.0 (Certara^TM, USA) with non-compartmental and compartmental methods. PPK analysis was conducted using NONMEM 7.4 (Icon Development Solutions, Ellicott City, MD) with G77 FORTRAN complier and FOCEI algorithm. Results from BSI patients in the present study and healthy subjects in a previous study were combined ([Liu et al., 2021]). One- and two-compartment models were tested during development of the base model. Models were developed and evaluated based on an objective function value and goodness-of-fit plots. The covariates were selected using a forward inclusion and backward elimination strategy. The screened covariates were sex, age, body weight, height, body mass index (BMI), creatinine clearance (CLcr), albumin, hemoglobin, total protein, total bilirubin, serum alanine aminotransferase (ALT), serum aspartate aminotransferase (AST), serum creatinine, Sequential Organ Failure Assessment (SOFA) score, and disease state (BSI patients were defined as 1 and healthy subjects were defined as 2). Covariates were included in the model based on the criteria of OFV requiring a decrease of 3.84 (p < .05) in the forward inclusion and an increase of greater of 10.83 (p < .001) in the backward elimination. Bootstrap sampling and visual predictive checks (VPCs) were utilized to validate the robustness of the final model.

[2] = system: carbapenem-resistant K. pneumoniae (CRKP) bloodstream infections; test: Microbiological and clinical efficacy in CRKP bloodstream infection; type: in vivo, human; conditions: for Microbiological efficacy: blood culture; for Clinical efficacy: evaluated when the subject withdrew or completed the study; for 28-day survival: 14 days of treatment
Protocol: This prospective, multi-centered, single-armed and open-label clinical trial was conducted in accordance with Good Clinical Practice, International Conference on Harmonization guidelines, and in compliance with the World Medical Association Declaration of Helsinki and was approved by the Ethics Committee of Sir Run Run Shaw Hospital, College of Medicine, Zhejiang University, Hangzhou, China, and other participating centers ([Williams, 2008]). Written informed consent was obtained from each patient or his/her representative before enrollment. Patients with CRKP-positive blood cultures and with an estimated glomerular filtration rate (eGFR) of 60–120 ml/min were included. The inclusion and exclusion criteria are shown in Supplementary Table S1. This clinical trial was registered at http://www.chictr.org.cn (registration number: ChiCTR 1900021137) and was conducted across 2019 and 2020.
The definition of different population groups for safety and efficacy analysis is shown in Supplementary Table S2. Briefly, safety was evaluated based on adverse events (AEs) in patients who received at least one polymyxin B dose. Adverse events were recorded based on patient self-reporting as well as abnormal laboratory test results including serum chemistry and routine blood and urinary testing. Acute kidney injury (AKI) was graded according to the RIFLE criteria ([Bellomo et al., 2004]). The primary endpoint was culture-confirmed bacterial eradication of CRKP from the blood evaluated by blood cultures taken every 3 days following the first dose of polymyxin B administration. Secondary endpoints were clinical outcome (clinical cure or improvement, Supplementary Table S3) evaluated in patients who received at least 3 days of polymyxin B treatment, and 28-day all-cause mortality evaluated in patients who completed 14 days of polymyxin B treatment.

[3] = cited from earlier work
Excerpt: Nephrotoxicity following intravenous administration of polymyxin B may occur in up to ∼30% of patients and constitutes the major dose-limiting factor with polymyxin therapy ([Ouderkirk et al., 2003]; [Sobieszczyk et al., 2004]; [Phe et al., 2014]; [Oliota et al., 2019]). The inability to substantially increase the daily dose of polymyxins may lead to suboptimal dosing which compromises efficacy and increases the likelihood of resistance emerging ([Zavascki et al., 2007]; [Rigatto et al., 2014]). In the present study, no pathological factors affecting renal function were present in any of the p ...

[4] = human, steady state, 1.25 mg/kg/12 h (2-h iv infusion), plasma, LC-MS/MS, non-compartmental

Question: Which Cmax ([1]; human, 2.5 mg/kg loading dose, 3-h iv infusion, plasma, LC-MS/MS, read-out: Cmax following the loading dose) does the source give for `CC[C@H](C)CCCCC(=O)N[C@@H](CCN)C(=O)N[C@H](C(=O)N[C@@H](CCN)C(=O)N[C@H]1CCNC(=O)[C@H]([C@@H](C)O)NC(=O)[C@H](CCN)NC(=O)[C@H](CCN)NC(=O)[C@H](CC(C)C)NC(=O)[C@@H](Cc2ccccc2)NC(=O)[C@H](CCN)NC1=O)[C@@H](C)O` [polymyxin B] (X1-[Dab]T[Dab][Dab][Dab][dF]L[Dab][Dab]T; lactam 4-C) here?
Answer: 5530 ± 1800 ng/mL

Question: What about the level at 12 h ([1]; human, 2.5 mg/kg loading dose, 3-h iv infusion, plasma, LC-MS/MS, read-out: Cmin (12 h) following the loading dose) of the same compound?
Answer: 1620 ± 410 ng/mL

Question: What about the clearance ([1]; human, plasma, iv, two-compartmental analysis, read-out: CL, clearance from the central compartment (converted)) of the same compound?
Answer: 0.433 mL/min/kg

Question: And the Vd [1, 4]?
Answer: 0.49 ± 0.142 L/kg

Question: What about the half-life [1, 4] of the same compound?
Answer: 12.5 ± 3.11 h

Question: What about the AUC(0-t) ([1]; human, steady state, 1.25 mg/kg/12 h (2-h iv infusion), plasma, LC-MS/MS, non-compartmental, read-out: AUC12h) of the same compound?
Answer: 39800 ± 12500 ng·h/mL

Question: What about the clearance ([1]; human, steady state, 1.25 mg/kg/12 h (2-h iv infusion), plasma, LC-MS/MS, non-compartmental, read-out: CL (converted)) of the same compound?
Answer: 0.467 mL/min/kg

Question: What about the Cmax ([1]; human, steady state, 1.25 mg/kg/12 h (2-h iv infusion), plasma, LC-MS/MS, non-compartmental, read-out: Cmax) of the same compound?
Answer: 5420 ± 1690 ng/mL

Question: What about the “Cavg (Css,avg)” value ([1]; steady state, 1.25 mg/kg/12 h (2-h iv infusion), plasma, LC-MS/MS, non-compartmental) of the same compound?
Answer: 3350 ± 1060 ng/mL

Question: And the “K10, elimination rate constant” value ([1]; two-compartmental analysis)?
Answer: 0.165 ± 0.065 h⁻¹

Question: What about the “K12, rate constant central to peripheral compartment” value ([1]; two-compartmental analysis) of the same compound?
Answer: 0.702 ± 0.395 h⁻¹

Question: What about the “K21, rate constant peripheral to central compartment” value ([1]; two-compartmental analysis) of the same compound?
Answer: 0.214 ± 0.137 h⁻¹

Question: And the “V1, central volume of distribution” value ([1]; two-compartmental analysis)?
Answer: 0.163 ± 0.036 L/kg

Question: What about the “V2, peripheral volume of distribution” value ([1]; two-compartmental analysis) of the same compound?
Answer: 0.565 ± 0.243 L/kg

Question: What about the “patients alive 28 days after the commencement of therapy” value ([2]; 4 patients who completed the 14-day treatment protocol) of the same compound?
Answer: all 4

Question: And the “clinical cure or improvement” value ([2]; 6/8 patients)?
Answer: 75%

Question: What about the “time to negative blood cultures after commencing therapy” value ([2]; all 8 patients evaluated for microbiological efficacy) of the same compound?
Answer: ≤ 3 days

Question: And the Microbiological efficacy ([2]; patient 1)?
Answer: Eradication

Question: What about the Clinical efficacy ([2]; patient 1) of the same compound?
Answer: Not improved

Question: What about the Microbiological efficacy ([2]; patient 2) of the same compound?
Answer: Eradication

Question: What about the Clinical efficacy ([2]; patient 2) of the same compound?
Answer: Improved

Question: What about the 28-day survival ([2]; patient 3) of the same compound?
Answer: Yes

Question: What about the Microbiological efficacy ([2]; patient 3) of the same compound?
Answer: Eradication

Question: What about the Clinical efficacy ([2]; patient 3) of the same compound?
Answer: Cure

Question: What about the Microbiological efficacy ([2]; patient 5) of the same compound?
Answer: Eradication

Question: And the Clinical efficacy ([2]; patient 5)?
Answer: Improved

Question: And the 28-day survival ([2]; patient 6)?
Answer: Yes

Question: And the Microbiological efficacy ([2]; patient 6)?
Answer: Eradication

Question: And the Clinical efficacy ([2]; patient 6)?
Answer: Cure

Question: And the 28-day survival ([2]; patient 7)?
Answer: Yes

Question: What about the Microbiological efficacy ([2]; patient 7) of the same compound?
Answer: Eradication

Question: And the Clinical efficacy ([2]; patient 7)?
Answer: Cure

Question: What about the Microbiological efficacy ([2]; patient 8) of the same compound?
Answer: Eradication

Question: What about the Clinical efficacy ([2]; patient 8) of the same compound?
Answer: Improved

Question: What about the 28-day survival ([2]; patient 9) of the same compound?
Answer: Yes

Question: And the Microbiological efficacy ([2]; patient 9)?
Answer: Eradication

Question: What about the Clinical efficacy ([2]; patient 9) of the same compound?
Answer: Failure

Question: And the “clinical cure or improvement” value ([2]; patients evaluated for efficacy (n = 8))?
Answer: 6 of 8

Question: What about the “incidence of nephrotoxicity reported previously” value ([3]; ref Oliota et al., 2019) of the same compound?
Answer: 29.8%

Question: What about the “incidence of polymyxin B-associated nephrotoxicity (RIFLE criteria)” value ([3]; ref Phe et al., 2014) of the same compound?
Answer: 23.1%

Question: And the “patients with nephrotoxicity following intravenous administration” value ([3]; up to, ref Ouderkirk et al., 2003, Sobieszczyk et al., 2004, Phe et al., 2014, Oliota et al., 2019)?
Answer: ~30%
